# Key:
# [1] = AUC in mouse brain at 10 mg/kg, po; format: ADME, organism-based
# [2] = Plasma protein binding in rat; format: ADME; details: read-out: PPB
# [3] = molecular target: T1, Nuclear receptor ROR-gamma (Mus musculus, UniProt P51450); experiment: Inverse agonist activity at RORgammat in mouse splenocytes derived naive T cells assessed as suppression of T cell differentiation to Th17 cells by measuring IL-17 secretion in presence of […]/anti-IFNgamma/TGFbeta/IL-6 for 6 days by ELISA; format: cell-based
# T1 sequence (P51450 whole entry): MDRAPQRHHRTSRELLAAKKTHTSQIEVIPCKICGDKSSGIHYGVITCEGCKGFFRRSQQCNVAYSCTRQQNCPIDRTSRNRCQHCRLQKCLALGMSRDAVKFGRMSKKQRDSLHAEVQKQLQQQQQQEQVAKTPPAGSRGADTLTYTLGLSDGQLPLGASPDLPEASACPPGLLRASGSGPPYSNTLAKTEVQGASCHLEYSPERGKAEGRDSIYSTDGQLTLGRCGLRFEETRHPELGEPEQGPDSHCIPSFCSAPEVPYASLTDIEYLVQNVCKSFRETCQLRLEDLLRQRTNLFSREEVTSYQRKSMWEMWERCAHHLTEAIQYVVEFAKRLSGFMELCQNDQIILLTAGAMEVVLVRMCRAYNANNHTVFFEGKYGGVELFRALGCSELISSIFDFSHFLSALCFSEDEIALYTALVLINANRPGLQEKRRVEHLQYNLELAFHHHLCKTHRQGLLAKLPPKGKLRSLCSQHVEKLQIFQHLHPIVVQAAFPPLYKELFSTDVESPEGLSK
# [4] = Cytotoxicity against Balb/c mouse splenocytes assessed as cell viability in presence of anti-CD3/anti-CD28 measured after 24 hrs; format: cell-based, Splenocyte; details: read-out: Activity
# [5] = Metabolic stability in human hepatocytes assessed as parent compound remaining after 60 mins; format: ADME, cell-based, Hepatocyte; details: read-out: Stability
# [6] = test system: Mus musculus; experiment: (§1) Immunosuppressive activity in MOG (35 to 55 residues)/pertussis toxin-induced experimental allergic encephalomyelitis C57BL/6J mouse model assessed as reduction in IL-17F gene expression in spinal cord at 30 mg/kg, po bid measured at day 19 post MOG immunization/pertusis immunization relative to control; format: functional; details: 456 h
# [7] = AUC in mouse skin at 10 mg/kg, po; format: ADME, organism-based, Zone of skin
# [8] = Cmax in mouse at 10 mg/kg, po; format: ADME, organism-based; set-up: dose 10 mg/kg, route oral; details: in vivo
# [9] = Plasma protein binding in human; format: ADME; details: read-out: PPB
# [10] = test system: Mus musculus; experiment: Inhibition of anti-CD3-induced IL-17A level in Balb/c mouse plasma at 30 mg/kg, po treated prior to stimulation with anti-CD3 for 3 hrs relative to control; format: functional
# [11] = test system: Splenocyte; experiment: Cytotoxicity against mouse splenocytes assessed as cell viability incubated for 6 days in presence of anti-CD4/anti-IFNgamma/TGFbeta/IL-6; format: cell-based; details: 144 h
# [12] = Oral bioavailability in mouse at 10 mg/kg; format: ADME, organism-based; details: in vivo
# [13] = Half life in mouse at 3 mg/kg, iv; format: ADME, organism-based; details: in vivo
# [14] = test system: HepG2; experiment: Cytotoxicity against human HepG2 cells
# [15] = Metabolic stability in simulated gastric fluid assessed as compound remaining after 60 mins; format: ADME; details: read-out: Stability
# [16] = test system: Mus musculus; experiment: as §1, with “CCR6” for “IL-17F”, “23” for “19”; format: functional; details: 552 h
# [17] = AUC in mouse liver at 10 mg/kg, po; format: ADME, organism-based
# [18] = Metabolic stability in simulated gastric fluid assessed as compound remaining after 45 mins; format: ADME; details: read-out: Stability
# [19] = Plasma protein binding in mouse; format: ADME; details: read-out: PPB (converted)
# [20] = Metabolic stability in mouse hepatocytes assessed as parent compound remaining after 60 mins; format: ADME, cell-based, Hepatocyte; details: read-out: Stability
# [21] = Volume of distribution at steady state in mouse at 3 mg/kg, iv; format: ADME, organism-based; details: in vivo, read-out: Vdss
# [22] = Plasma protein binding in dog; format: ADME, Canis lupus familiaris; details: read-out: PPB
# [23] = test system: Mus musculus; experiment: as §1, with “IL-17A” for “IL-17F”, “23” for “19”; format: functional; details: 552 h
# [24] = Metabolic stability in simulated intestinal fluid assessed as compound remaining after 3 hrs; format: ADME; details: read-out: Stability
# [25] = molecular target: T2, Nuclear receptor ROR-alpha (Homo sapiens, UniProt P35398); experiment: Inhibition of GAL4-DBD fused RORalpha LBD (unknown origin) expressed in HEK293T cells; format: cell-based
# T2 sequence (P35398 whole entry): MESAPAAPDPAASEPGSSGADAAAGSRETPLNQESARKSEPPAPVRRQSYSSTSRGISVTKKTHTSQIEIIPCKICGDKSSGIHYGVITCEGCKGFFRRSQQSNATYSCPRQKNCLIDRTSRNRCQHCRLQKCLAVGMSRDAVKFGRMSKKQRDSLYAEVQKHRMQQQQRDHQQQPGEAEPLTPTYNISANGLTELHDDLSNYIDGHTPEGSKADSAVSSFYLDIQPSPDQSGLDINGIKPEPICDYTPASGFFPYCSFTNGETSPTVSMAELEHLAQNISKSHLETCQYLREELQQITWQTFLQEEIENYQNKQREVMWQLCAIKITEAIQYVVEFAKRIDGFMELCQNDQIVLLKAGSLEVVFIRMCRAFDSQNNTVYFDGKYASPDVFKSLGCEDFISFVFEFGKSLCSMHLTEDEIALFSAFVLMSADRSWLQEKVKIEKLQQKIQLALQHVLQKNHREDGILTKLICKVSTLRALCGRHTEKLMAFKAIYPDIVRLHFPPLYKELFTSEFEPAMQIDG
# [26] = Mutagenicity in Salmonella typhimurium by mini Ames test; format: toxicity; details: salmonella enterica subsp. enterica serovar typhimurium
# [27] = test system: Mus musculus; experiment: Immunosuppressive activity in MOG (35 to 55 residues)/pertussis toxin-induced experimental allergic encephalomyelitis C57BL/6J mouse model assessed as reduction in disease severity score at 3 mg/kg, po bid measured at day 23 relative to dexamethasone; format: functional; details: 552 h
# [28] = test system: Mus musculus; experiment: as §1, with “GM-CSF” for “IL-17F”, “23” for “19”; format: functional; details: 552 h
# [29] = Metabolic stability in rat hepatocytes assessed as parent compound remaining after 60 mins; format: ADME, cell-based, Hepatocyte; details: read-out: Stability
# [30] = test system: Mus musculus; experiment: Immunosuppressive activity in MOG (35 to 55 residues)/pertussis toxin-induced experimental allergic encephalomyelitis C57BL/6J mouse model assessed as reduction in disease severity score at 30 mg/kg, po bid measured at day 21 relative to dexamethasone; format: functional; details: 504 h
# [31] = AUC (0 to 24 hrs) in mouse at 10 mg/kg, po; format: ADME, organism-based; set-up: dose 10 mg/kg, time < 24 hr, route oral; details: in vivo
# [32] = Metabolic stability in simulated intestinal fluid assessed as compound remaining after 15 mins; format: ADME; details: read-out: Stability
# [33] = Tmax in mouse at 10 mg/kg, po; format: ADME, organism-based; details: in vivo
# [34] = test system: Mus musculus; experiment: as §1, with “IL-22” for “IL-17F”; format: functional; details: 456 h
# [35] = Metabolic stability in simulated gastric fluid assessed as compound remaining after 30 mins; format: ADME; details: read-out: Stability
# [36] = Metabolic stability in simulated intestinal fluid assessed as compound remaining after 30 mins; format: ADME; details: read-out: Stability
smiles,measurement,setting,value
O=C(O)c1ccc(-n2cc(C(=O)c3c(Cl)cccc3Cl)c3cccc(F)c32)cc1,AUC,[1],0.29 µM·h
same,fraction unbound,[2],0.01
same,IC50,[3],0.026 µM
same,viability at 24 h,[4],> 95%
same,remaining at 1 h,[5],59%
same,inhibition in vivo at 30 mg/kg,[6],70%
same,AUC,[7],11 µM·h
same,Cmax,[8],6.2 µM
same,fraction unbound,[9],< 0.03
same,inhibition in vivo at 30 mg/kg,[10],33%
same,Activity,[11],Non-Toxic
same,bioavailability,[12],72%
same,half-life,[13],2.4 h
same,IC50,[14],> 50 µM
same,remaining at 1 h,[15],93%
same,inhibition in vivo at 30 mg/kg,[16],36%
same,AUC,[17],400 µM·h
same,remaining at 0.75 h,[18],93%
same,fraction unbound,[19],0.02
same,remaining at 1 h,[20],80%
same,Vd,[21],4.8 L/kg
same,fraction unbound,[22],0.01
same,inhibition in vivo at 30 mg/kg,[23],43%
same,remaining at 3 h,[24],100%
same,IC50,[25],> 10 µM
same,Activity,[26],Non-Toxic
same,inhibition in vivo at 3 mg/kg,[27],25%
same,inhibition in vivo at 30 mg/kg,[28],70%
same,remaining at 1 h,[29],57%
same,inhibition in vivo at 30 mg/kg,[30],26%
same,AUC(0-t) at 24 h,[31],10.4 µM·h
same,remaining at […],[32],100%
same,Tmax,[33],0.5 h
same,inhibition in vivo at 30 mg/kg,[34],36%
same,remaining at 0.5 h,[35],90%
same,remaining at 0.5 h,[36],100%

# Reference: ChEMBL document CHEMBL4346735, “Discovery and pharmacological evaluation of indole derivatives as potent and selective RORγt inverse agonist for multiple autoimmune conditions” (Bioorg Med Chem Lett, 2019)
